Results taken from publication PMC11521309, “A novel 4-aminoquinoline chemotype with multistage antimalarial activity and lack of cross-resistance with PfCRT and PfMDR1 mutants” (PLOS Pathogens, 2024).
Where two headings read alike, the source gives them in different places.

Columns and labels:
[1] = tested on: P. falciparum Dd2^F145I; design: key to Phenotype, Dd2^F145I: S: sensitive; R: resistant; details: cited from earlier work
[2] = tested on: P. falciparum 7G8^C350R; design: key to Phenotype, 7G8^C350R: S: sensitive; R: resistant; details: cited from earlier work
[3] = tested on: PfCRT variants (7G8, 7G8^F145I, 7G8^C350R); experiment: SSM-based electrophysiology (SURFE2R N1) of PfCRT proteoliposomes; type: biochemical, Plasmodium falciparum; details: 10 μM, distinct PfCRT isoforms
Method: Solid Supported Membrane (SSM)-based electrophysiological measurements were performed using SURFE^2R N1 technology (Nanion Technologies, Inc.) according to published protocols. Briefly, sensors were coated with 1-octadecanethiol (Sigma-Aldrich), rinsed, and 1,2-diphytanoyl-sn-glycero-3-phosphocholine (Avanti Polar Lipids, Inc) was added. Immediately, the sensor was filled with 50 μL non-activating buffer (10 mM Tris-MES, pH 5.5) and PfCRT-containing proteoliposomes (PLs). To generate a K^+ diffusion potential-driven ΔΨ, valinomycin was included at a final concentration of 80 nM [34, 35]. The activating solution (10 mM Tris-MES, pH 5.5 containing either 10 μM CQ, PPQ, LDT-623, pyrimethamine, or atovaquone) was applied using a single-solution exchange protocol (activating buffer incubation for 1 second). Each measurement was repeated at least twice employing at least three different sensors. Peak currents for PfCRT were corrected by subtracting the peak currents recorded with control liposomes (lacking this transporter). To acquire the PfCRT-elicited charge (Coulomb) movement associated with drug transport, the area under the curve (current as a function of time) was analyzed with GraphPad Prism version 10.

[4] = tested on: pool of barcoded P. falciparum lines (Dd2 and 3D7 backgrounds); experiment: Resistome growth assay, pool of 51 barcoded lines; type: cell-based, Plasmodium falciparum; details: 3 × IC50 constant, 14 days
Method: The resistome growth assay employs a parasite pool consisting of 51 barcoded lines including both Dd2 and 3D7 genetic backgrounds, with wild-type lines for both (S3 Table). Most lines used were derived from in vitro resistance selection experiments, with others having been CRISPR edited. All lines were barcoded via CRISPR editing of a 101bp barcode cassette into the non-essential pfpare locus (PF3D7_0709700). Parasites were cultured in RPMI-1640 medium supplemented with HEPES (5.94 g/L), NaHCO3 (2.1 g/L), glutamax (1×), hypoxanthine (50 mg/L), gentamycin ([…]), and AlbumaxII (5 g/L) at a […]. Parasite growth was monitored over 14 days by flow cytometry (Cytoflex, Beckman Coulter) by staining with 1× SYBR Green and 0.2 μM MitoTracker Deep Red. Parasitemia adjustments were made to maintain a healthy range of <5% parasitemia. Parasite cultures were harvested at day 14 and lysed by saponin (0.05%), with pellets washed twice with PBS. Barcodes were PCR amplified using 5 μL of parasite pellet and sequenced by Illumina amplicon sequencing.

[5] = tested on: P. falciparum 7G8^7G8; experiment: ABS susceptibility, pfcrt-edited line; type: cell-based; details: Plasmodium falciparum
Method: (§1) P. falciparum ABS parasites were cultured at 3% hematocrit in human O^+ RBCs in RPMI-1640 media supplemented with 25 mM HEPES, 50 mg/L hypoxanthine, 2 mM L-glutamine, 0.21% sodium bicarbonate, 0.5% (w/v) AlbuMAXII (Invitrogen) and 10 μg/mL gentamycin. Culture flasks were kept in modular incubator chambers (Billups-Rothenberg) in a 5% O2, 5% CO2, and 90% N2 atmosphere at 37°C. Synchronized ring-stage parasites were obtained by two consecutive rounds of treatment with 5% D-sorbitol in 48-hour intervals. […] This was done by exposing cultures at 1% hematocrit and 0.3% parasitemia in 96-well plates in the presence of drugs in a two-fold 10 or 12-point serial dilution in duplicate along with drug-free controls. After a 72-hour incubation, parasite survival was assessed by flow cytometry on an iQue flow cytometer (Sartorius) using SYBR Green and MitoTracker Deep Red FM (Life Technologies) as nuclear stain and vital dye, respectively. Parasite survival was determined as a percentage relative to drug-free control. IC50 values were interpolated from log concentration versus response curves in Prism 9 (GraphPad Prism Software Inc.).

[6] = tested on: P. falciparum 7G8^C350R; experiment: ABS susceptibility, pfcrt-edited line; type: cell-based; details: Plasmodium falciparum
Method: as §1

[7] = tested on: P. falciparum 7G8^F145I; experiment: ABS susceptibility, pfcrt-edited line; type: cell-based; details: Plasmodium falciparum
Method: as §1

[8] = tested on: P. falciparum Dd2^3D7; experiment: ABS susceptibility, pfcrt-edited line; type: cell-based; details: Plasmodium falciparum
Method: as §1

[9] = tested on: P. falciparum Dd2^Dd2; experiment: ABS susceptibility, pfcrt-edited line; type: cell-based; details: Plasmodium falciparum
Method: as §1

[10] = tested on: P. falciparum Dd2^F145I; experiment: ABS susceptibility, pfcrt-edited line; type: cell-based; details: Plasmodium falciparum
Method: as §1

[11] = tested on: P. falciparum Dd2^G353V; experiment: ABS susceptibility, pfcrt-edited line; type: cell-based; details: Plasmodium falciparum
Method: as §1

[12] = tested on: P. falciparum Dd2^H97Y; experiment: ABS susceptibility, pfcrt-edited line; type: cell-based; details: Plasmodium falciparum
Method: as §1

[13] = tested on: P. falciparum Dd2^I218F; experiment: ABS susceptibility, pfcrt-edited line; type: cell-based; details: Plasmodium falciparum
Method: as §1

[14] = tested on: P. falciparum Dd2^M343L; experiment: ABS susceptibility, pfcrt-edited line; type: cell-based; details: Plasmodium falciparum
Method: as §1

[15] = tested on: P. falciparum Dd2^T93S; experiment: ABS susceptibility, pfcrt-edited line; type: cell-based; details: Plasmodium falciparum
Method: as §1

[16] = tested on: P. falciparum FCB^KD1; experiment: ABS susceptibility, pfmdr1-modified line; type: cell-based; details: Plasmodium falciparum
Method: as §1

[17] = tested on: P. falciparum FCB; experiment: ABS susceptibility, pfmdr1-modified line; type: cell-based; details: Plasmodium falciparum
Method: as §1

[18] = tested on: P. falciparum NF10^NF; experiment: ABS susceptibility, pfmdr1-modified line; type: cell-based; details: Plasmodium falciparum
Method: as §1

[19] = tested on: P. falciparum NF10^YF; experiment: ABS susceptibility, pfmdr1-modified line; type: cell-based; details: Plasmodium falciparum
Method: as §1

## CCN(CC)CCCC(C)Nc1ccnc2cc(Cl)ccc12 (stereo not drawn) [CQ, chloroquine]
[1]; Dd2F145I, mean ± SEM, ref 1 (Ross et al., 2018)
  IC50: 19.3 ± 1.3 nM
[1]; a: sensitized to CQ compared to the parental line but not fully sensitive, ref [19],[20],[51]
  Phenotype, Dd2^F145I: S ^a
[2]; 7G8C350R, mean ± SEM, ref 3 (Kim et al., 2019)
  IC50: 6.9 ± 0.3 nM
[2]; ref [19],[20],[51]
  Phenotype, 7G8^C350R: S

## COc1cc2nccc(Nc3cccc(Oc4ccccc4)c3)c2cc1OC [LDT-623]
[3]
  PfCRT-specific currents: elicits the same magnitude of currents as CQ and PPQ
[4]
  growth recovery of barcoded pool: no growth recovery
[5]
  IC50: 579 ± 67.5 nM
  IC90: 980 ± 133 nM
[6]
  IC50: 576 ± 49.4 nM
  IC90: 4050 ± 3080 nM
[7]
  IC50: 439 ± 22.7 nM
  IC90: 6570 ± 3250 nM
[8]
  IC50: 232 ± 10.5 nM
  IC90: 455 ± 51.1 nM
[9]
  IC50: 452 ± 31 nM
  IC90: 6340 ± 1660 nM
[10]
  IC50: 541 ± 83.7 nM
  IC90: 3790 ± 1730 nM
[11]
  IC50: 456 ± 9.6 nM
  IC90: 6510 ± 1540 nM
[12]
  IC50: 416 ± 59.6 nM
  IC90: 5270 ± 99.2 nM
[13]
  IC50: 435 ± 20.1 nM
  IC90: 3980 ± 1680 nM
[14]
  IC50: 416 ± 50 nM
  IC90: 6860 ± 333 nM
[15]
  IC50: 227 ± 9 nM
  IC90: 429 ± 41.7 nM
[16]; read-out: IC50 FCBKD1
  IC50: 488 ± 12 nM
[16]; read-out: IC90 FCBKD1
  IC90: 7650 ± 1120 nM
[17]; read-out: IC50 FCB
  IC50: 414 ± 12.9 nM
[17]; read-out: IC90 FCB
  IC90: 4430 ± 164 nM
[18]; read-out: IC50 NF10NF
  IC50: 400 ± 28.2 nM
[18]; read-out: IC90 NF10NF
  IC90: 580 ± 13 nM
[19]; read-out: IC50 NF10YF
  IC50: 360.2 ± 1.9 nM
[19]; read-out: IC90 NF10YF
  IC90: 562.9 ± 2.8 nM
